From ChEMBL document CHEMBL3352592, “The antileishmanial activity of isoforms 6- and 8-selective histone deacetylase inhibitors” (Bioorg Med Chem Lett, 2014)
Values after ≈ are worked out from the molar mass of the structure shown.

Legend:
Leishmania donovani [1] = experiment: Antileishmanial activity against axenic amastigote stage of Leishmania donovani after 72 hrs by Alamar blue assay; assay type: functional, organism-based
Leishmania donovani [2] = experiment: Antileishmanial activity against promastigote stage of Leishmania donovani after 72 hrs by Alamar blue assay; assay type: functional, organism-based
THP-1 = experiment: Cytotoxicity against human THP1 cells after 48 hrs by Alamar blue assay; assay type: ADME, cell-based; settings: THP-1, 48 h
Leishmania donovani [3] = experiment: Antileishmanial activity against amastigote stage of Leishmania donovani infected in human THP1 cells after 48 hrs by Alamar blue assay; assay type: functional, organism-based; settings: THP-1, 48 h
[4] = molecular target: T1, Protein deacetylase HDAC6 (Homo sapiens, UniProt Q9UBN7); experiment: Inhibition of HDAC6 in human LNCAP cells assessed as tubulin acetylation by Western blot analysis; assay type: cell-based
T1 sequence (Q9UBN7 whole entry): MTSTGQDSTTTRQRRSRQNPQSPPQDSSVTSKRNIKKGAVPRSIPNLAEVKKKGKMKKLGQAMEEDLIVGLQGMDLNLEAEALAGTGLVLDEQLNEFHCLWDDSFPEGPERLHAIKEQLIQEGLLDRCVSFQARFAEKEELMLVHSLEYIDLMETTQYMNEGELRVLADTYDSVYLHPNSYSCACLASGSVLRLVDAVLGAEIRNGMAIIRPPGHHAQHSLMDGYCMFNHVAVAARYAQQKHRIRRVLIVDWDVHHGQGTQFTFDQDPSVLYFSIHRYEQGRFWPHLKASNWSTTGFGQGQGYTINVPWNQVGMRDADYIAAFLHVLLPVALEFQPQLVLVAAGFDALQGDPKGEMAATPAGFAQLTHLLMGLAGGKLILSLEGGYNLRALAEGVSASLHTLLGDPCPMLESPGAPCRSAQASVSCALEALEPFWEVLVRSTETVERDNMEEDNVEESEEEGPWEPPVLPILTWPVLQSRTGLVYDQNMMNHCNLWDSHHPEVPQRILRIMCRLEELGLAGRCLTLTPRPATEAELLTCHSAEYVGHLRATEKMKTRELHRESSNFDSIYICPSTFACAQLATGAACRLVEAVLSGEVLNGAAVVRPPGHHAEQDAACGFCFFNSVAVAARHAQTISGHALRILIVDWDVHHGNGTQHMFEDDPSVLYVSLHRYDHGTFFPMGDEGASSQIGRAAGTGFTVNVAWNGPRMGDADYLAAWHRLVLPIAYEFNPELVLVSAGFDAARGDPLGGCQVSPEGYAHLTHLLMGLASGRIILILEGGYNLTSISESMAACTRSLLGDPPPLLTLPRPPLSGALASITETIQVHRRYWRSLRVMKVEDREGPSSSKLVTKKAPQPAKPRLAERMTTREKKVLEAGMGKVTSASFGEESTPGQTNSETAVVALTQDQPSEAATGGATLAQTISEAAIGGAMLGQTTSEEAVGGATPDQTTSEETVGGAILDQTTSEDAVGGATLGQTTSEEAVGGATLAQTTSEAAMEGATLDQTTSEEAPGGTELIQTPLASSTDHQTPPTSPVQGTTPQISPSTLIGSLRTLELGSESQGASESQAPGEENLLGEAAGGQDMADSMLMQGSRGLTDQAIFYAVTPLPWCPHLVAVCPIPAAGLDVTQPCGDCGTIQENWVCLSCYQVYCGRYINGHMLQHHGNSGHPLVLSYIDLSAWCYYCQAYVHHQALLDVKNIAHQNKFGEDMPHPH

DU-145 = experiment: Cytotoxicity against human DU145 cells; assay type: functional, cell-based
Leishmania donovani [5] = experiment: Selectivity ratio of IC50 for axenic amastigote stage of Leishmania donovani to IC50 for amastigote stage of Leishmania donovani infected in human THP1 cells; assay type: functional, THP-1
[6] = Cytotoxicity against human Jurkat gamma1 cells; assay type: functional, cell-based
Jurkat = experiment: Cytotoxicity against human Jurkat cells; assay type: functional, cell-based
LNCaP = experiment: Cytotoxicity against human LNCAP cells; assay type: functional, cell-based

| Compound | IC50 (Leishmania donovani [1]) | IC50 (Leishmania donovani [2]) | IC50 (THP-1) | IC50 (Leishmania donovani [3]) | IC50 [4] | IC50 (DU-145) | Ratio IC50 (Leishmania donovani [5]) | IC50 [6] | IC50 (Jurkat) | IC50 (LNCaP) |
| --- | --- | --- | --- | --- | --- | --- | --- | --- | --- | --- |
| Oc1cccn(Cc2ccccc2)c1=S | 6.5 µg/mL (≈ 29.9 µM) | 0.1 µg/mL (≈ 0.46 µM) | > 10 µg/mL | 5.8 µg/mL (≈ 26.7 µM) |  |  |  |  |  |  |
| Cc1ccc(-c2ccc(Cn3cccc(O)c3=O)cc2)cc1 | 29 µg/mL (≈ 99.5 µM) | 6 µg/mL (≈ 20.6 µM) | > 10 µg/mL | > 10 µg/mL |  |  |  |  |  |  |
| N=C(N)c1ccc(OCCCCCOc2ccc(C(=N)N)cc2)cc1 [PENTAMIDINE] | 8.9 µg/mL (≈ 26.1 µM) | 0.6 µg/mL (≈ 1.76 µM) | > 10 µg/mL | 0.4 µg/mL (≈ 1.17 µM) |  |  |  |  |  |  |
| C[C@@H]1[C@H](O)[C@@H](C)/C=C/C=C/C=C/C=C/C=C/C=C/C=C/[C@H](O[C@@H]2O[C@H](C)[C@@H](O)[C@H](N)[C@@H]2O)C[C@@H]2O[C@](O)(C[C@@H](O)C[C@@H](O)[C@H](O)CC[C@@H](O)C[C@@H](O)CC(=O)O[C@H]1C)C[C@H](O)[C@H]2C(=O)O [AMPHOTERICIN B] | 1.6 µg/mL (≈ 1.73 µM) |  | > 10 µg/mL | 0.2 µg/mL (≈ 0.216 µM) |  |  |  |  |  |  |
| Cc1ccccc1-c1ccc(Cn2cccc(O)c2=S)cc1 | 34.4 µg/mL (≈ 112 µM) | 0.3 µg/mL (≈ 0.976 µM) | > 10 µg/mL | 2.1 µg/mL (≈ 6.83 µM) | 7.75 µM | 13.6 µM |  |  |  |  |
| Cc1cccc(-c2ccc(Cn3cccc(O)c3=S)cc2)c1 | 32.6 µg/mL (≈ 106 µM) | 0.3 µg/mL (≈ 0.976 µM) | > 10 µg/mL | > 10 µg/mL |  |  |  |  |  |  |
| Oc1cccn(Cc2ccc(-c3ccccc3)cc2)c1=S | 6.3 µg/mL (≈ 21.5 µM) | 0.1 µg/mL (≈ 0.341 µM) | > 10 µg/mL | 0.6 µg/mL (≈ 2.05 µM) |  |  | 5 |  |  |  |
| N#Cc1cccc(-c2ccc(Cn3cccc(O)c3=S)cc2)c1 | 11.2 µg/mL (≈ 35.2 µM) | 0.4 µg/mL (≈ 1.26 µM) | > 10 µg/mL | 3.9 µg/mL (≈ 12.2 µM) |  |  |  |  |  |  |
| N#Cc1cccc(-c2ccc(Cn3cccc(O)c3=O)cc2)c1 | > 40 µg/mL | 9 µg/mL (≈ 29.8 µM) | > 10 µg/mL | 2.3 µg/mL (≈ 7.61 µM) |  |  |  |  |  |  |
| CN(C)c1ccc(-c2ccc(Cn3cccc(O)c3=O)cc2)cn1 | > 40 µg/mL | 38.9 µg/mL (≈ 121 µM) | > 10 µg/mL | > 10 µg/mL |  |  |  |  |  |  |
| Oc1cccn(Cc2cn(-c3ccccc3)nn2)c1=S | 6.2 µg/mL (≈ 21.8 µM) | 3.2 µg/mL (≈ 11.3 µM) | > 10 µg/mL | 2.7 µg/mL (≈ 9.5 µM) |  |  |  |  |  |  |
| CN(C)c1ccc(-n2cc(Cn3cccc(O)c3=S)nn2)cc1 | 5.3 µg/mL (≈ 16.2 µM) | 1.3 µg/mL (≈ 3.97 µM) | > 10 µg/mL | 1.5 µg/mL (≈ 4.58 µM) |  |  |  |  |  |  |
| N#Cc1ccc(-c2ccc(Cn3cccc(O)c3=S)cc2)cc1 | 6.1 µg/mL (≈ 19.2 µM) | 0.7 µg/mL (≈ 2.2 µM) | > 10 µg/mL | 0.9 µg/mL (≈ 2.83 µM) |  |  | 5 |  |  |  |
| CN(C)c1ccc(-c2ccc(Cn3cccc(O)c3=S)cc2)cn1 | 6.1 µg/mL (≈ 18.1 µM) | 2.3 µg/mL (≈ 6.82 µM) | > 10 µg/mL | 2.6 µg/mL (≈ 7.7 µM) |  |  |  |  |  |  |
| CN(C)c1ccc(-c2ccc(Cn3cccc(O)c3=O)cc2)cc1 | 4 µg/mL (≈ 12.5 µM) | 7.5 µg/mL (≈ 23.4 µM) | > 10 µg/mL | > 10 µg/mL |  |  |  |  |  |  |
| O=c1c(O)cccn1Cc1cn(-c2ccccc2)nn1 | 18 µg/mL (≈ 67.1 µM) | > 40 µg/mL | > 10 µg/mL | > 10 µg/mL |  |  |  |  |  |  |
| Oc1ccc[nH]c1=S | 30.7 µg/mL (≈ 241 µM) | 12.7 µg/mL (≈ 99.9 µM) | > 10 µg/mL | 6.1 µg/mL (≈ 48 µM) |  |  |  |  |  |  |
| N#Cc1ccc(-c2ccc(Cn3cccc(O)c3=O)cc2)cc1 | 5 µg/mL (≈ 16.5 µM) | 4.6 µg/mL (≈ 15.2 µM) | > 10 µg/mL | 3.5 µg/mL (≈ 11.6 µM) |  |  |  |  |  |  |
| COc1ccc(Cn2ccc3ccc(C(=O)NO)cc32)cc1 | > 40 µg/mL |  | > 10 µg/mL | > 10 µg/mL |  |  |  |  |  |  |
| CN(C)c1ccc(-n2cc(Cn3cccc(O)c3=O)nn2)cc1 | > 40 µg/mL | 14.5 µg/mL (≈ 46.6 µM) | > 10 µg/mL | 2 µg/mL (≈ 6.42 µM) |  |  |  |  |  |  |
| O=c1c(O)cccn1Cc1ccc(-c2ccccc2)cc1 | 30.9 µg/mL (≈ 111 µM) | 6.8 µg/mL (≈ 24.5 µM) | > 10 µg/mL | 1.7 µg/mL (≈ 6.13 µM) |  |  |  |  |  |  |
| Cc1ccccc1-c1ccc(Cn2cccc(O)c2=O)cc1 | 31.6 µg/mL (≈ 108 µM) | 27.6 µg/mL (≈ 94.7 µM) | > 10 µg/mL | > 10 µg/mL |  |  |  |  |  |  |
| Cc1ccc(-c2ccc(Cn3cccc(O)c3=S)cc2)cc1 | 31.3 µg/mL (≈ 102 µM) | 0.3 µg/mL (≈ 0.976 µM) | > 10 µg/mL | 3.7 µg/mL (≈ 12 µM) |  |  |  |  |  |  |
| Cc1cccc(-c2ccc(Cn3cccc(O)c3=O)cc2)c1 | 32.5 µg/mL (≈ 112 µM) | 12.6 µg/mL (≈ 43.2 µM) | > 10 µg/mL | > 10 µg/mL |  |  |  |  |  |  |
| CN(C)c1ccc(-c2ccc(Cn3cccc(O)c3=S)cc2)cc1 | 7.4 µg/mL (≈ 22 µM) | 0.2 µg/mL (≈ 0.594 µM) | > 10 µg/mL | 0.3 µg/mL (≈ 0.892 µM) |  |  | 5 |  |  |  |
| N#Cc1ccccc1-c1ccc(Cn2cccc(O)c2=O)cc1 | > 40 µg/mL | 26.7 µg/mL (≈ 88.3 µM) | > 10 µg/mL | 1.8 µg/mL (≈ 5.95 µM) |  |  |  |  |  |  |
| Oc1cccnc1O | > 40 µg/mL | > 40 µg/mL | > 10 µg/mL | > 10 µg/mL |  |  |  |  |  |  |
| CN1CCc2c(c3ccccc3n2Cc2ccc(C(=O)NO)cc2)C1 [TUBASTATIN A] | 8.8 µg/mL (≈ 26.2 µM) | 4.4 µg/mL (≈ 13.1 µM) | > 10 µg/mL |  |  |  |  |  |  |  |
| N#Cc1ccccc1-c1ccc(Cn2cccc(O)c2=S)cc1 | 31.7 µg/mL (≈ 99.6 µM) | 0.9 µg/mL (≈ 2.83 µM) | > 10 µg/mL | > 10 µg/mL |  | > 20 µM |  | Not Active | 8.95 µM | 14.7 µM |
| O=c1c(O)cccn1Cc1ccccc1 | > 40 µg/mL | 9.3 µg/mL (≈ 46.2 µM) | > 10 µg/mL | > 10 µg/mL |  |  |  |  |  |  |
